Data from the NIST ThermoML archive (doi:10.1016/j.jct.2009.12.004).
“And” between values parts separate entries of the source, which are not always exact repeats. Equal values may be shown once. ± gives the expanded uncertainty stated by the source.

Key:
[1] = activity coefficient (dimensionless); of the first substance listed, at infinite dilution; xn = mol fraction of the nth substance listed; details: Liquid, Chromatography, x1 = 0
[2] = 298.15 K; 101.33 kPa; Liquid; Vibrating tube method

Row | SMILES | activity coefficient ([1]; 313.15 K) | activity coefficient ([1]; 323.15 K) | activity coefficient ([1]; 333.15 K) | mass density [2] [kg/m3]
1 | C=CCCCCCCCC [1-decene] + CCCCCCCC[n+]1ccn(C)c1.F[P-](F)(F)(F)(F)F | 16.3 and 16.7 | 16.3 and 16.5 | 16.3 and 16.4 | –
2 | CCCCCCCC[n+]1ccn(C)c1.F[P-](F)(F)(F)(F)F [1-octyl-3-methylimidazolium hexafluorophosphate] | – | – | – | 1238.51 ± 10
3 | C#CCCCCCC [1-octyne] + CCCCCCCC[n+]1ccn(C)c1.F[P-](F)(F)(F)(F)F | 3.77 and 3.9 | 3.94 and 3.87 | 3.94 and 4.03 | –
4 | c1ccccc1 [benzene] + CCCCCCCC[n+]1ccn(C)c1.F[P-](F)(F)(F)(F)F | 0.96 and 0.97 | 0.99 ± 0.08 | 1 and 1.03 | –
5 | C1CCCCC1 [cyclohexane] + CCCCCCCC[n+]1ccn(C)c1.F[P-](F)(F)(F)(F)F | 6.7 and 6.82 | 6.61 and 6.56 | 6.29 and 6.3 | –
6 | CCCCCCCCCC [decane] + CCCCCCCC[n+]1ccn(C)c1.F[P-](F)(F)(F)(F)F | 31.8 and 31.7 | 30.8 and 30.3 | 28.2 and 29 | –
7 | CCc1ccccc1 [ethylbenzene] + CCCCCCCC[n+]1ccn(C)c1.F[P-](F)(F)(F)(F)F | 1.95 ± 0.17 | 1.98 ± 0.17 | 1.99 and 2.02 | –
8 | CCCCCCC [heptane] + CCCCCCCC[n+]1ccn(C)c1.F[P-](F)(F)(F)(F)F | 14.1 and 14.3 | 13.6 and 13.8 | 13.2 ± 1.1 | –
9 | C=CCCCC [hex-1-ene] + CCCCCCCC[n+]1ccn(C)c1.F[P-](F)(F)(F)(F)F | 6.2 and 6.5 | 6.29 and 6.15 | 6.1 and 6.15 | –
10 | CO [methanol] + CCCCCCCC[n+]1ccn(C)c1.F[P-](F)(F)(F)(F)F | 1.77 and 1.85 | 1.65 and 1.61 | 1.46 and 1.5 | –
11 | C=CCCCCCC [oct-1-ene] + CCCCCCCC[n+]1ccn(C)c1.F[P-](F)(F)(F)(F)F | 10.8 and 10.3 | 10.2 and 10.7 | 10.4 and 10.3 | –
12 | CCCCCCCC [octane] + CCCCCCCC[n+]1ccn(C)c1.F[P-](F)(F)(F)(F)F | 18.3 and 17.6 | 17.1 and 17.9 | 17 and 16.9 | –
13 | Cc1ccccc1 [toluene] + CCCCCCCC[n+]1ccn(C)c1.F[P-](F)(F)(F)(F)F | 1.31 and 1.36 | 1.37 and 1.35 | 1.37 and 1.41 | –
14 | CCCCCCCCCCC [undecane] + CCCCCCCC[n+]1ccn(C)c1.F[P-](F)(F)(F)(F)F | 42.1 and 41.3 | 40.1 and 39.6 | 36.5 and 37 | –

Now from value to molecule:

Row | activity coefficient ([1]; 313.15 K) | activity coefficient ([1]; 323.15 K) | activity coefficient ([1]; 333.15 K) | mass density [2] [kg/m3] | SMILES
15 | 8.2 ± 0.7 | 8.1 and 8.2 | 8 and 8.1 | – | C=CCCCCC [1-heptene] + CCCCCCCC[n+]1ccn(C)c1.F[P-](F)(F)(F)(F)F
16 | 2.81 and 2.93 | 2.98 and 2.87 | 2.93 and 3.04 | – | C#CCCCCC [1-heptyne] + CCCCCCCC[n+]1ccn(C)c1.F[P-](F)(F)(F)(F)F
17 | 2.24 and 2.33 | 2.38 and 2.3 | 2.34 and 2.43 | – | C#CCCCC [1-hexyne] + CCCCCCCC[n+]1ccn(C)c1.F[P-](F)(F)(F)(F)F
18 | 14.2 and 13.5 | 13.3 and 13.9 | 13.5 and 13.3 | – | C=CCCCCCCC [1-nonene] + CCCCCCCC[n+]1ccn(C)c1.F[P-](F)(F)(F)(F)F
19 | 1.7 and 1.72 | 1.79 and 1.75 | 1.78 and 1.84 | – | C#CCCC [1-pentyne] + CCCCCCCC[n+]1ccn(C)c1.F[P-](F)(F)(F)(F)F
20 | 8.2 and 8 | 7.74 and 7.97 | 7.63 and 7.75 | – | C1CCCCCC1 [cycloheptane] + CCCCCCCC[n+]1ccn(C)c1.F[P-](F)(F)(F)(F)F
21 | 10.2 and 9.9 | 9.5 and 9.9 | 9.4 ± 0.8 | – | C1CCCCCCC1 [cyclooctane] + CCCCCCCC[n+]1ccn(C)c1.F[P-](F)(F)(F)(F)F
22 | 5.02 and 5.06 | 4.95 and 4.92 | 4.77 and 4.79 | – | C1CCCC1 [cyclopentane] + CCCCCCCC[n+]1ccn(C)c1.F[P-](F)(F)(F)(F)F
23 | 2.22 and 2.32 | 2.05 and 2 | 1.79 and 1.82 | – | CCO [ethanol] + CCCCCCCC[n+]1ccn(C)c1.F[P-](F)(F)(F)(F)F
24 | 10.8 and 11 | 10.7 and 10.6 | 10.2 and 10.4 | – | CCCCCC [hexane] + CCCCCCCC[n+]1ccn(C)c1.F[P-](F)(F)(F)(F)F
25 | 8.2 and 8.3 | 8.1 ± 0.7 | 7.8 and 8 | – | CCCCC [pentane] + CCCCCCCC[n+]1ccn(C)c1.F[P-](F)(F)(F)(F)F
